Source: paper PMC11167047 (Cell Death Discovery, 2024)

Tests used:
Assay in all cases: kinome screen (33PanQinase)
Assay type in all cases: biochemical
p38Δ = biological target: T1, p38Δ (Homo sapiens, UniProt O15264)
T1 construct: purchased Reaction Biology Europe GmbH (formerly ProQinase)
T1 sequence (O15264 1-365): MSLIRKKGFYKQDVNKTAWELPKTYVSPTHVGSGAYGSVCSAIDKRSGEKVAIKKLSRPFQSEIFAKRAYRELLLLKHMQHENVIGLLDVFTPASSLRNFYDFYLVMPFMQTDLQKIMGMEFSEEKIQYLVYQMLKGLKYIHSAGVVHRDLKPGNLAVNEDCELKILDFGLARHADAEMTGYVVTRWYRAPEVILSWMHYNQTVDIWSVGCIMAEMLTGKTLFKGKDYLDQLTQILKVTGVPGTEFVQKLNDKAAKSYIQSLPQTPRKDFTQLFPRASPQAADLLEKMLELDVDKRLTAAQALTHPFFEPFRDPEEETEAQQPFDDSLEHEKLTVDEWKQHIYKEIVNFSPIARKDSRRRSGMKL
Method: (§1) The Kinome Screening was performed by Reaction Biology Europe GmbH (http://reactionbiology.com; Freiburg i. Br., Germany).

NLK = biological target: T2, NLK (Homo sapiens, UniProt Q9UBE8)
T2 construct: purchased Reaction Biology Europe GmbH (formerly ProQinase)
T2 sequence (Q9UBE8 1-527): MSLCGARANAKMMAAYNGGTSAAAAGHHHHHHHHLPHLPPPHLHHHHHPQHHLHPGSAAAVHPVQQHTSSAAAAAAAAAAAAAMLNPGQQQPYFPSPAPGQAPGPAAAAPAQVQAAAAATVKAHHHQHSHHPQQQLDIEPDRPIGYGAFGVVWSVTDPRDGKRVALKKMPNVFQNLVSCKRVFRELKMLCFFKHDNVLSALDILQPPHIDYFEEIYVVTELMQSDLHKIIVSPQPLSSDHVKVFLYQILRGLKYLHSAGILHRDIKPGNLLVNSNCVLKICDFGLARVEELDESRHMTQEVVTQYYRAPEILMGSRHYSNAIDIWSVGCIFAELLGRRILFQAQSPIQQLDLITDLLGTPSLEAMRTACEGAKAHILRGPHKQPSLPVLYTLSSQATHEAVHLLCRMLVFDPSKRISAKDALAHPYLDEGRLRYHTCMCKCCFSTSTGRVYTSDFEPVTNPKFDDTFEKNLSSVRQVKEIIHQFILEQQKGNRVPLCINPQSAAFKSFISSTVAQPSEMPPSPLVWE
Method: as §1

RPS6KA6 = biological target: T3, RPS6KA6 (Homo sapiens, UniProt Q9UK32)
T3 construct: purchased Reaction Biology Europe GmbH (formerly ProQinase)
T3 sequence (Q9UK32 whole entry): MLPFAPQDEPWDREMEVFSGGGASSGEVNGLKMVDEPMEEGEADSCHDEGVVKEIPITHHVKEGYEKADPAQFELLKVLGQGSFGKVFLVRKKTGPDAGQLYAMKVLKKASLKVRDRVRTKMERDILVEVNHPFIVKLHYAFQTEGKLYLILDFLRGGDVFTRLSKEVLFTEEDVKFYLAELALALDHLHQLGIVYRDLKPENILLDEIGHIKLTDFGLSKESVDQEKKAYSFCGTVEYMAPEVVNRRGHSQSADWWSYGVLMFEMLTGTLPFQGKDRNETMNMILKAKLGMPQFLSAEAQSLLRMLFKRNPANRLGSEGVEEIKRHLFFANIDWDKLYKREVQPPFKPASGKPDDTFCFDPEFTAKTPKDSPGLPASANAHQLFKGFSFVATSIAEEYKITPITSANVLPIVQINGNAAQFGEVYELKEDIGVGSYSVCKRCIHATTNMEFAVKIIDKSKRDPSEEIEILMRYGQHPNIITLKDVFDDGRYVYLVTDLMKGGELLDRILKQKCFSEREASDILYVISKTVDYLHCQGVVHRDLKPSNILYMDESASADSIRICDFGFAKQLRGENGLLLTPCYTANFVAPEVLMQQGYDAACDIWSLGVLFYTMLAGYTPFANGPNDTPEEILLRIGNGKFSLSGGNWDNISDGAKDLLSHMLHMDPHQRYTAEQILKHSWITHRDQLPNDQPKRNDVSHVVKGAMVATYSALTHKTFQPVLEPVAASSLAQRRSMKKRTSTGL
Method: as §1

RON = biological target: T4, RON (Homo sapiens, UniProt Q04912)
T4 construct: purchased Reaction Biology Europe GmbH (formerly ProQinase)
T4 sequence (Q04912 25-1400): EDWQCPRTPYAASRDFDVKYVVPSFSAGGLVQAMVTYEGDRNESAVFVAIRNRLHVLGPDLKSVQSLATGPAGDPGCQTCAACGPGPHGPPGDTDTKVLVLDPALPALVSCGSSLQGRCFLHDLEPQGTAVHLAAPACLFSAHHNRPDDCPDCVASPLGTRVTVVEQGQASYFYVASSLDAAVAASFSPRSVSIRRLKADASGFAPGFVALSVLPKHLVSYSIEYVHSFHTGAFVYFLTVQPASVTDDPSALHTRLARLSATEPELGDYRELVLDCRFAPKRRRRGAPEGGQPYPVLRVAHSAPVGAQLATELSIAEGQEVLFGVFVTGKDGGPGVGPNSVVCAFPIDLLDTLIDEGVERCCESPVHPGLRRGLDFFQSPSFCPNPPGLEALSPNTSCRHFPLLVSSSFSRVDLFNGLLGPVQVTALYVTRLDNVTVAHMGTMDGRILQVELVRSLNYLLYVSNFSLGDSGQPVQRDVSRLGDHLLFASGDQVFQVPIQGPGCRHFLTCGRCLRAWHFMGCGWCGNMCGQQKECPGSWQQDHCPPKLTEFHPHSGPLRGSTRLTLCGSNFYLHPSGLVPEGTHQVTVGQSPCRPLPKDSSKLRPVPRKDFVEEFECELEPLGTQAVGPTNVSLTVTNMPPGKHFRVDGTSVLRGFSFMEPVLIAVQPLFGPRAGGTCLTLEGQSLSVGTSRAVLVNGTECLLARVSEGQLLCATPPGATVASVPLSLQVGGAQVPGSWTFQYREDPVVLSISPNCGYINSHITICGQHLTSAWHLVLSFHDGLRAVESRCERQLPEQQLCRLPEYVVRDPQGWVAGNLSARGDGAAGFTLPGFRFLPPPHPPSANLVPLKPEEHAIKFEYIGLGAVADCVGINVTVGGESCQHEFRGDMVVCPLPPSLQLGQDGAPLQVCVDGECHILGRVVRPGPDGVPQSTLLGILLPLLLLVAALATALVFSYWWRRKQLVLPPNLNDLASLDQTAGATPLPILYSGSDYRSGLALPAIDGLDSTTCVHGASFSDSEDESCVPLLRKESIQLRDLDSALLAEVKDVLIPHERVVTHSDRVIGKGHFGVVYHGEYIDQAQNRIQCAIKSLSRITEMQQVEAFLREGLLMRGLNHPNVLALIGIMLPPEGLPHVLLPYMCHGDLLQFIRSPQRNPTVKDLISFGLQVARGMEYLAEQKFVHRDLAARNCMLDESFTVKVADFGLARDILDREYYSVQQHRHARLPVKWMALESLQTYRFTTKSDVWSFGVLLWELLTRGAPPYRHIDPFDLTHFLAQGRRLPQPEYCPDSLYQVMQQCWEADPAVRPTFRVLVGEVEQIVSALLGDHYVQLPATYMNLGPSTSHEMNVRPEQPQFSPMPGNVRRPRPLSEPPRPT
Method: as §1

CDC42BPB = biological target: T5, CDC42BPB (Homo sapiens, UniProt Q9Y5S2)
T5 construct: purchased Reaction Biology Europe GmbH (formerly ProQinase)
T5 sequence (Q9Y5S2 whole entry): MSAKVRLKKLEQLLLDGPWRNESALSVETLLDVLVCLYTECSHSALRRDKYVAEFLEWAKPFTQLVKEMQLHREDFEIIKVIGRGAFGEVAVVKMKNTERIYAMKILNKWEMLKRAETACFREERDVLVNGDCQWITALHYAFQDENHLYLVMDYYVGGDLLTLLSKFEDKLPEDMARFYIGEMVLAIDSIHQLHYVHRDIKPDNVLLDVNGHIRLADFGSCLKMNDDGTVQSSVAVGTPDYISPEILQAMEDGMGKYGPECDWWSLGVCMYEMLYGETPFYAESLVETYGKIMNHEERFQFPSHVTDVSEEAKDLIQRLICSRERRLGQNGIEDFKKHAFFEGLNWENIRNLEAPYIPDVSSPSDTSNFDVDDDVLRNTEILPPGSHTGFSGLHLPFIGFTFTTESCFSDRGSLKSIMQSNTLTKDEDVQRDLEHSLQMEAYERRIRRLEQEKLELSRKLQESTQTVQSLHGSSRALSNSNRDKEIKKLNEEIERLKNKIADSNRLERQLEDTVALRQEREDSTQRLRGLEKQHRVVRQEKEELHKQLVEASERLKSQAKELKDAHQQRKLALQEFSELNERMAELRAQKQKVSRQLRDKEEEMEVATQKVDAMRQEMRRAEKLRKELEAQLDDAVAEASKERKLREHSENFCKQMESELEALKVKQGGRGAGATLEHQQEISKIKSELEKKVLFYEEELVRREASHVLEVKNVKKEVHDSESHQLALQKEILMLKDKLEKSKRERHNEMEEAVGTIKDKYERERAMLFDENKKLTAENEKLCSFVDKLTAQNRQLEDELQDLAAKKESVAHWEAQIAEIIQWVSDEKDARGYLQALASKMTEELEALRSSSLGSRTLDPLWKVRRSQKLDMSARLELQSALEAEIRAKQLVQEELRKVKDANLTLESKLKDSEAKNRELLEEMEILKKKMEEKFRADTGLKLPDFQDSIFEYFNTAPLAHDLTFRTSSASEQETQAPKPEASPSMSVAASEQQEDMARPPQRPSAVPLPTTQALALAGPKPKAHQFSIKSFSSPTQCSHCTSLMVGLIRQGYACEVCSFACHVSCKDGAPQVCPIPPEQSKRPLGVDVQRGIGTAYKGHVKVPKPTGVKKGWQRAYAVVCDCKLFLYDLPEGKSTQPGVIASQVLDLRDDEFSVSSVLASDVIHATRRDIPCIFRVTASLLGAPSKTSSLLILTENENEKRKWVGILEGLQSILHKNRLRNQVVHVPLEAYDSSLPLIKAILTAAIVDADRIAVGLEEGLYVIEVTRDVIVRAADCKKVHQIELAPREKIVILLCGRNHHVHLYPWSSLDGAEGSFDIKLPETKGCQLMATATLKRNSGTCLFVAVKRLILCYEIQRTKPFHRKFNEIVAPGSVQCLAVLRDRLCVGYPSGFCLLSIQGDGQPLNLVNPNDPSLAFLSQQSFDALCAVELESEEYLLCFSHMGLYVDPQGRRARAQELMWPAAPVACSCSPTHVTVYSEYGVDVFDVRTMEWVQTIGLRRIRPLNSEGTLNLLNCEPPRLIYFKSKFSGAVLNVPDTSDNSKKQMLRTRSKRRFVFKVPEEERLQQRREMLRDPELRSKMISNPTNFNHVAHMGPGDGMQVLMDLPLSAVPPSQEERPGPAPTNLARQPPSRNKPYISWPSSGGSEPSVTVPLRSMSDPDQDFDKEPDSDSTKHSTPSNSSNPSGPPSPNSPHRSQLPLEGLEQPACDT
Method: as §1

RIPK2 = biological target: T6, RIPK2 (Homo sapiens, UniProt O43353)
T6 construct: purchased Reaction Biology Europe GmbH (formerly ProQinase)
Method: as §1

TBK1 = biological target: T7, TBK1 (Homo sapiens, UniProt Q9UHD2)
T7 construct: purchased Reaction Biology Europe GmbH (formerly ProQinase)
T7 sequence (Q9UHD2 1-729): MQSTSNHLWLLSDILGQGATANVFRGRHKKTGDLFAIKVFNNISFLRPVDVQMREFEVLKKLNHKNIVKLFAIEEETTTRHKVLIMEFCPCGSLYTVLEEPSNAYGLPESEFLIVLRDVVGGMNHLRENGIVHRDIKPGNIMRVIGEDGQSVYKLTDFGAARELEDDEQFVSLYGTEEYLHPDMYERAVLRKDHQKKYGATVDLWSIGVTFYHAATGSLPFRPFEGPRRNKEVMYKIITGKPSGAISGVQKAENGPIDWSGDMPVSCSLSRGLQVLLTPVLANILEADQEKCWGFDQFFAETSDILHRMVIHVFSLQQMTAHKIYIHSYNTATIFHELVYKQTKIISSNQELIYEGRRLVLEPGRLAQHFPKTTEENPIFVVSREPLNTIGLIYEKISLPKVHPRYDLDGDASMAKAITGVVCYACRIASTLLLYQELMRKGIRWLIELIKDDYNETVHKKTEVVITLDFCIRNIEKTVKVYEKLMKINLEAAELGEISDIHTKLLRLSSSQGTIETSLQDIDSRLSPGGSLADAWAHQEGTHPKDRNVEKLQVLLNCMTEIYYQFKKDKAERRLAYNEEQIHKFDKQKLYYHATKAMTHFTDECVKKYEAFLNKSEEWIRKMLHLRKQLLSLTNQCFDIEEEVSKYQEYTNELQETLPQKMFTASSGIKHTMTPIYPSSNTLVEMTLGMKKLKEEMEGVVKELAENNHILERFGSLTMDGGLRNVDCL
Method: as §1

JAK2 = biological target: T8, JAK2 (Homo sapiens, UniProt O60674)
T8 construct: purchased Reaction Biology Europe GmbH (formerly ProQinase)
T8 sequence (O60674 whole entry): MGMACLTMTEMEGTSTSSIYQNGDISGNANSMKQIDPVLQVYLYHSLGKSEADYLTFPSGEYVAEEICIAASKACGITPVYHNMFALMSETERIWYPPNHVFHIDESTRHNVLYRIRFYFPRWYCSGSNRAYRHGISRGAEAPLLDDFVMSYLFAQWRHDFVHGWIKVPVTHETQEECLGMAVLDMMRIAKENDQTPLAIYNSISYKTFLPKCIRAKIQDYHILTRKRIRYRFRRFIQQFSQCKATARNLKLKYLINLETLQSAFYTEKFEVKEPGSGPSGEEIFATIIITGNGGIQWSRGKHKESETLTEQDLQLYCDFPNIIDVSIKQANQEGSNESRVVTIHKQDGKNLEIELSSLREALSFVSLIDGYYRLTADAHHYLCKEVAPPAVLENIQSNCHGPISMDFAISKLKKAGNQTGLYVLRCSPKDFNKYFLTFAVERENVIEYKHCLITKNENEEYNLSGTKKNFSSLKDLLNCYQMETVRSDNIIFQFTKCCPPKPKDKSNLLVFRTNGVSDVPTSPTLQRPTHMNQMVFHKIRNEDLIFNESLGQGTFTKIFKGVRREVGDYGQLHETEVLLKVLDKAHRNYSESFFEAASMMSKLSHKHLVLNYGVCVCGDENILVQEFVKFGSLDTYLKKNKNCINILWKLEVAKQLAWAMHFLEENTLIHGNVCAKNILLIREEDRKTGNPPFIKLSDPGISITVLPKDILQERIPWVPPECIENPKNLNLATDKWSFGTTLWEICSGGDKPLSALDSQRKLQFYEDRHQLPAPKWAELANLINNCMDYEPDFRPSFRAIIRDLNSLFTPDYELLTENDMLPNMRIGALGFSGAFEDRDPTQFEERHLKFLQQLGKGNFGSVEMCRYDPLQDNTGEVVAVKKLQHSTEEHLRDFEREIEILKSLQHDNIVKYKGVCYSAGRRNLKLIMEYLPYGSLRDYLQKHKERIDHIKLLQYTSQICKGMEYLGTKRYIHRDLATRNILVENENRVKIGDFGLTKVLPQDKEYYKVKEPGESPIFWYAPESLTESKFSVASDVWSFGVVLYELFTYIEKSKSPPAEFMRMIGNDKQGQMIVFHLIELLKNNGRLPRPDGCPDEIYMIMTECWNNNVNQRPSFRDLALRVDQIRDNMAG
Method: as §1

ERK5 = biological target: T9, ERK5 (Homo sapiens, UniProt Q13164)
T9 construct: purchased Reaction Biology Europe GmbH (formerly ProQinase)
Method: as §1

RAF1 YDYD = biological target: T10, RAF1 YDYD (Homo sapiens, UniProt P04049, Y340D/Y341D)
T10 construct: purchased Reaction Biology Europe GmbH (formerly ProQinase)
Method: as §1

CAMK2B = biological target: T11, CAMK2B (Homo sapiens, UniProt Q13554)
T11 construct: purchased Reaction Biology Europe GmbH (formerly ProQinase)
Method: as §1

Row | SMILES | residual kinase activity (p38Δ; 0.3 µM) | residual kinase activity (NLK; 0.3 µM) | residual kinase activity (RPS6KA6; 0.3 µM) | residual kinase activity (RON; 0.3 µM) | residual kinase activity (CDC42BPB; 0.3 µM) | residual kinase activity (RIPK2; 0.3 µM) | residual kinase activity (TBK1; 0.3 µM) | residual kinase activity (JAK2; 0.3 µM) | residual kinase activity (ERK5; 0.3 µM) | residual kinase activity (RAF1 YDYD; 0.3 µM) | residual kinase activity (CAMK2B; 0.3 µM) | also measured
1 | COc1ccnc2[nH]cc(-c3cc(N)nc(N)c3)c12 [meriolin 16] | 24 % of control | 81 % of control | 48 % of control | 90 % of control | 2 % of control | 78 % of control | 99 % of control | 80 % of control | 22 % of control | 96 % of control | 74 % of control | residual kinase activity (p38Δ; 0.03 µM): 79 % of control; residual kinase activity (NLK; 0.03 µM): 96 % of control; residual kinase activity (RPS6KA6; 0.03 µM): 84 % of control; residual kinase activity (RON; 0.03 µM): 92 % of control; residual kinase activity (CDC42BPB; 0.03 µM): 37 % of control; residual kinase activity (RIPK2; 0.03 µM): 95 % of control; residual kinase activity (TBK1; 0.03 µM): 114 % of control; residual kinase activity (JAK2; 0.03 µM): 102 % of control; residual kinase activity (ERK5; 0.03 µM): 28 % of control; residual kinase activity (RAF1 YDYD; 0.03 µM): 77 % of control; residual kinase activity (CAMK2B; 0.03 µM): 103 % of control
2 | c1ccc(CNc2cc(-c3c[nH]c4ncccc34)ccn2)cc1 [meriolin 36] | 59 % of control | 78 % of control | 13 % of control | 98 % of control | 0 % of control | 61 % of control | 48 % of control | 40 % of control | 13 % of control | 67 % of control | 83 % of control | residual kinase activity (p38Δ; 3 µM): 14 % of control; residual kinase activity (NLK; 3 µM): 29 % of control; residual kinase activity (RPS6KA6; 3 µM): 3 % of control; residual kinase activity (RON; 3 µM): 76 % of control; residual kinase activity (CDC42BPB; 3 µM): 0 % of control; residual kinase activity (RIPK2; 3 µM): 33 % of control; residual kinase activity (TBK1; 3 µM): 10 % of control; residual kinase activity (JAK2; 3 µM): 8 % of control; residual kinase activity (ERK5; 3 µM): 8 % of control; residual kinase activity (RAF1 YDYD; 3 µM): 67 % of control; residual kinase activity (CAMK2B; 3 µM): 31 % of control
